{"source": "patent US11071776B2", "about": "“Nanoparticles for treatment of allergy” (priority 2012, dated 2021)", "origin": "cited, not measured here", "data": [{"smiles": "CCCCCCCCCCCCCCCCCCCCCCCCCC(=O)N[C@@H](CO[C@H]1O[C@H](CO)[C@H](O)[C@H](O)[C@H]1O)[C@H](O)[C@H](O)CCCCCCCCCCCCCC", "note": "[αGalCer, alpha-galactosylceramide]", "values": [{"measurement": "toxicity to humans", "value": "not toxic to humans"}]}]}
